Active and inactive are the calls of the source. No cut-off for these calls is given here.
Legend:
[1] = target: T1, Mitogen-activated protein kinase 10 (Homo sapiens, UniProt P53779); test: Inhibition of JNK3 (unknown origin) using ATF2 as substrate incubated for 40 mins in presence of [gamma33P]ATP by scintillation counting analysis
[2] = target: T1, Mitogen-activated protein kinase 10; test: Inhibition of JNK3 (unknown origin) at 1 uM relative to control
[3] = Selectivity ratio of IC50 for inhibition of JNK1 (unknown origin) to IC50 for inhibition of JNK3 (unknown origin)
[4] = target: T2, Mitogen-activated protein kinase 8 (Homo sapiens, UniProt P45983); test: Inhibition of JNK1 (unknown origin) incubated for 20 mins in presence of 33P-ATP
T2 sequence (P45983 whole entry): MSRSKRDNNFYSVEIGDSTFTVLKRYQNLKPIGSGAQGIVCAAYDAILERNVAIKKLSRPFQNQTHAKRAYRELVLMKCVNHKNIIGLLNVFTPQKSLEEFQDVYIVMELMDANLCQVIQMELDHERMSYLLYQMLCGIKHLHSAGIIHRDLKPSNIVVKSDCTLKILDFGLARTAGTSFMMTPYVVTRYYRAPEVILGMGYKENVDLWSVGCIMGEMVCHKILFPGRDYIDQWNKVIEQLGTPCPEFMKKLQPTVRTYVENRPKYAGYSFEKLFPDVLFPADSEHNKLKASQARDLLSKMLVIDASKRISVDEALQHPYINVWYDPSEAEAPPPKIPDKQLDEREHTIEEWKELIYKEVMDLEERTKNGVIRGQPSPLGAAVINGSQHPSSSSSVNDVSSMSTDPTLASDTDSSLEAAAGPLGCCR

[5] = target: T3, Mitogen-activated protein kinase 9 (Homo sapiens, UniProt P45984); test: Inhibition of JNK2 (unknown origin) incubated for 20 mins in presence of 33P-ATP
Target sequence in this assay (P45984 whole entry): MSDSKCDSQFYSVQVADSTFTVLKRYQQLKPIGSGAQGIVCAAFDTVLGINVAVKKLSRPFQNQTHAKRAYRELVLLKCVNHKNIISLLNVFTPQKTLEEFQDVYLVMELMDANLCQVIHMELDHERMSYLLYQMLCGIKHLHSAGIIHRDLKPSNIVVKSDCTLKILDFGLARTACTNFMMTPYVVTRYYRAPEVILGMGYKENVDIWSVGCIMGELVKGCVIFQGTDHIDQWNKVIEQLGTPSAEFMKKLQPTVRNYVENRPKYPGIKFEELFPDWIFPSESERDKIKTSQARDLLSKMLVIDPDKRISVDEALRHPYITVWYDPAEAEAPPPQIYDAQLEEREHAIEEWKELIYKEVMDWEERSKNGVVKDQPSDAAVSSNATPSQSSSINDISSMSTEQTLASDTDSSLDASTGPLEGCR

[6] = Selectivity ratio of IC50 for inhibition of p38alpha (unknown origin) to IC50 for inhibition of JNK3 (unknown origin)
[7] = Selectivity ratio of IC50 for inhibition of GSK3beta (unknown origin) to IC50 for inhibition of JNK3 (unknown origin)
[8] = target: T4, Mitogen-activated protein kinase 14 (Homo sapiens, UniProt Q16539); test: Inhibition of p38alpha (unknown origin) incubated for 20 mins in presence of 33P-ATP
T4 sequence (Q16539 whole entry): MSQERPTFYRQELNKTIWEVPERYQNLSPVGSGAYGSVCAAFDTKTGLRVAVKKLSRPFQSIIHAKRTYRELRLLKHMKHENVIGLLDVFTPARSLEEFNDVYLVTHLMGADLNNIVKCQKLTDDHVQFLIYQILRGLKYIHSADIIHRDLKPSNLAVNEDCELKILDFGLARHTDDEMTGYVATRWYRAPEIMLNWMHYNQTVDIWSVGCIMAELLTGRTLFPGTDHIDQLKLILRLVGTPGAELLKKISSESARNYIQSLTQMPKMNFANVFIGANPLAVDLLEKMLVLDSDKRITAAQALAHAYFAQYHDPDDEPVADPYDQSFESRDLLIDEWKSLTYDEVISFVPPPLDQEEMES

[9] = target: T3, Mitogen-activated protein kinase 9; test: Inhibition of JNK2 (unknown origin) at 1 uM relative to control
Target sequence in this assay (P45984 whole entry, looked up): as the sequence (P45984 whole entry) above

[10] = target: T2, Mitogen-activated protein kinase 8; test: Inhibition of JNK1 (unknown origin) at 1 uM relative to control
[11] = target: T4, Mitogen-activated protein kinase 14; test: Inhibition of p38alpha (unknown origin) at 1 uM relative to control
[12] = target: Glycogen synthase kinase-3 beta (Homo sapiens, UniProt P49841); test: Inhibition of GSK3beta (unknown origin) incubated for 20 mins in presence of 33P-ATP
Glycogen synthase kinase-3 beta, sequence (P49841 whole entry): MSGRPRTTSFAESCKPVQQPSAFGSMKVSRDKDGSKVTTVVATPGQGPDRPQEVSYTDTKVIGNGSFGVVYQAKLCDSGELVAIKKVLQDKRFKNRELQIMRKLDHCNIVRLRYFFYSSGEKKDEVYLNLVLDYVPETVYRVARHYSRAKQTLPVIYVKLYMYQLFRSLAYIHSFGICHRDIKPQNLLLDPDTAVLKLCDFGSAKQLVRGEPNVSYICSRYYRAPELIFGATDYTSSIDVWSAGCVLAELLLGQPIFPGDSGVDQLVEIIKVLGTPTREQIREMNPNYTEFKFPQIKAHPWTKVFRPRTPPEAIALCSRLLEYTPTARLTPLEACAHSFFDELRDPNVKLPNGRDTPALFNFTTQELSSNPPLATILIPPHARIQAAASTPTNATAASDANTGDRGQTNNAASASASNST

Cortical neurone = test: cells; conditions: Rattus norvegicus, 120 h, read-out: Activity
[13] = target: Mitogen-activated protein kinase 10 (Rattus norvegicus) (UniProt P49187); test: Inhibition of JNK3 in primary rat cortex neuron cells assessed as reduction in Abeta1-42 induced APP phosphorylation by Western blotting analysis; type: cell-based; conditions: Primary cortical neuron
Mitogen-activated protein kinase 10 (Rattus norvegicus), sequence (P49187 whole entry): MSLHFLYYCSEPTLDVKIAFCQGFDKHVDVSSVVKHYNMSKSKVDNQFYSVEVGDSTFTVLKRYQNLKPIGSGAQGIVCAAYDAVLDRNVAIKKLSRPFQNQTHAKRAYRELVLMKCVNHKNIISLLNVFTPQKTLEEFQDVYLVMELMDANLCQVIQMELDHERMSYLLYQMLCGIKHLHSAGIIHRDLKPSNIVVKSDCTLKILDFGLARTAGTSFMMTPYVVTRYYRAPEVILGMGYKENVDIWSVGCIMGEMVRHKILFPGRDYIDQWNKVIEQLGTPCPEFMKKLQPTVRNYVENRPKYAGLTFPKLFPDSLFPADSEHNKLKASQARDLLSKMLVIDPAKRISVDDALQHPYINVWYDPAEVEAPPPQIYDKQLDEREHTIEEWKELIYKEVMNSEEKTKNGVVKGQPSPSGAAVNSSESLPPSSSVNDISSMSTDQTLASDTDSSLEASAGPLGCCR

[14] = target: Mitogen-activated protein kinase 10 (Rattus norvegicus) (UniProt P49187); test: Inhibition of JNK3 in primary rat cortex neuron cells assessed as reduction in Abeta1-42 induced c-Jun phosphorylation by Western blotting analysis; type: cell-based; conditions: Primary cortical neuron

T1 sequence (P53779 whole entry): as the sequence (P49187 whole entry) above, with H27Q, S32Y, V33I, V34A counted along it

CNC(=O)C1Cc2nc(-c3ccc4c(c3)OCO4)n(-c3ccnc(N[C@H]4CCN(C(=O)C5CC5)C4)n3)c2C1 (some centres not stated)
IC50 [1]: 180 nM

CCOC(=O)C1Cc2nc(-c3ccc4c(c3)OCO4)n(-c3ccnc(N[C@@H]4CCN(C(=O)C5CC5)C4)n3)c2C1 (some centres not stated)
IC50 [1]: 49.9 nM

NC(=O)C1Cc2nc(-c3ccc4c(c3)OCO4)n(-c3ccnc(N[C@@H]4CCN(C(=O)C5CC5)C4)n3)c2C1 (some centres not stated)
IC50 [1]: 103 nM

CNC(=O)C1Cc2nc(-c3ccc4ccccc4c3)n(-c3ccnc(N[C@H]4CCCN(C(=O)C5CC5)C4)n3)c2C1 (some centres not stated)
inhibition [2]: 100% | Ratio IC50 [3]: > 100 | IC50 [4]: 14.4 nM | IC50 [1]: 0.564 nM | IC50 [5]: 7.56 nM | Ratio IC50 [6]: > 100 | Ratio IC50 [7]: > 100 | IC50 [8]: 751 nM | inhibition [9]: 80% | inhibition [10]: 80% | inhibition [11]: 80% | IC50 [12]: 1800 nM

NC(=O)C1Cc2nc(-c3ccc(Cl)c(Cl)c3)n(-c3ccnc(N[C@@H]4CCN(C(=O)C5CC5)C4)n3)c2C1 (some centres not stated)
IC50 [1]: 16.4 nM

NC(=O)C1Cc2nc(-c3ccc(F)c(C(F)(F)F)c3)n(-c3ccnc(N[C@H]4CCCN(C(=O)C5CC5)C4)n3)c2C1 (some centres not stated)
IC50 [1]: 6.39 nM

NC(=O)C1Cc2nc(-c3ccc(F)c(C(F)(F)F)c3)n(-c3ccnc(N[C@@H]4CCN(C(=O)C5CC5)C4)n3)c2C1 (some centres not stated)
IC50 [1]: 300 nM

CNC(=O)C1Cc2nc(-c3ccc4c(c3)OCO4)n(-c3ccnc(N[C@@H]4CCN(C(=O)C5CC5)C4)n3)c2C1 (some centres not stated)
IC50 [1]: 93.9 nM

CNC(=O)C1Cc2nc(-c3ccc(Cl)c(Cl)c3)n(-c3ccnc(N[C@H]4CCN(C(=O)C5CC5)C4)n3)c2C1 (some centres not stated)
IC50 [1]: 10.2 nM

NC(=O)C1Cc2nc(-c3ccc(F)c(C(F)(F)F)c3)n(-c3ccnc(N[C@@H]4CCCN(C(=O)C5CC5)C4)n3)c2C1 (some centres not stated)
IC50 [1]: 104 nM

NC(=O)C1Cc2nc(-c3ccc4c(c3)OCO4)n(-c3ccnc(N[C@H]4CCCN(C(=O)C5CC5)C4)n3)c2C1 (some centres not stated)
viability at 10 µM (Cortical neurone): 55.1% | IC50 [1]: 10 nM

CCOC(=O)C1Cc2nc(-c3ccc(F)c(C(F)(F)F)c3)n(-c3ccnc(N[C@@H]4CCN(C(=O)C5CC5)C4)n3)c2C1 (some centres not stated)
IC50 [1]: 63.1 nM

CCOC(=O)C1Cc2nc(-c3ccc4ccccc4c3)n(-c3ccnc(N[C@H]4CCCN(C(=O)C5CC5)C4)n3)c2C1 (some centres not stated)
viability at 10 µM (Cortical neurone): 55.7% | IC50 [4]: 32.5 nM | IC50 [1]: 0.716 nM | IC50 [5]: 13 nM | IC50 [8]: 291 nM | inhibition [13]: Active | IC50 [12]: 2250 nM | inhibition [14]: Active

NC(=O)C1Cc2nc(-c3ccc4ccccc4c3)n(-c3ccnc(N[C@H]4CCCN(C(=O)C5CC5)C4)n3)c2C1 (some centres not stated)
viability at 10 µM (Cortical neurone): 58.5% | IC50 [1]: 1.76 nM | inhibition [13]: Active | inhibition [14]: Active

CCOC(=O)C1Cc2nc(-c3ccc4c(c3)CCO4)n(-c3ccnc(N[C@H]4CCN(C(=O)C5CC5)C4)n3)c2C1 (some centres not stated)
IC50 [1]: 158 nM

CCOC(=O)C1Cc2nc(-c3ccc(F)c(C(F)(F)F)c3)n(-c3ccnc(N[C@@H]4CCCN(C(=O)C5CC5)C4)n3)c2C1 (some centres not stated)
IC50 [1]: 65.4 nM

CCOC(=O)C1Cc2nc(-c3ccc4c(c3)CCO4)n(-c3ccnc(N[C@H]4CCCN(C(=O)C5CC5)C4)n3)c2C1 (some centres not stated)
IC50 [1]: 31.4 nM

CCOC(=O)C1Cc2nc(-c3ccc4ccccc4c3)n(-c3ccnc(N[C@H]4CCN(C(=O)C5CC5)C4)n3)c2C1 (some centres not stated)
IC50 [1]: 23.4 nM

NC(=O)C1Cc2nc(-c3ccc4c(c3)OCO4)n(-c3ccnc(N[C@@H]4CCCN(C(=O)C5CC5)C4)n3)c2C1 (some centres not stated)
IC50 [1]: 36.1 nM

CCOC(=O)C1Cc2nc(-c3ccc4c(c3)OCO4)n(-c3ccnc(N[C@H]4CCCN(C(=O)C5CC5)C4)n3)c2C1 (some centres not stated)
IC50 [1]: 10.5 nM

CCOC(=O)C1Cc2nc(-c3ccc(Cl)c(Cl)c3)n(-c3ccnc(N[C@@H]4CCCN(C(=O)C5CC5)C4)n3)c2C1 (some centres not stated)
IC50 [4]: 82.8 nM | IC50 [1]: 0.607 nM | IC50 [5]: 8.56 nM | IC50 [8]: 53.2 nM | IC50 [12]: 195 nM

CCOC(=O)C1Cc2nc(-c3ccc4ccccc4c3)n(-c3ccnc(N[C@@H]4CCN(C(=O)C5CC5)C4)n3)c2C1 (some centres not stated)
IC50 [1]: 6.82 nM

CNC(=O)C1Cc2nc(-c3ccc(Cl)c(Cl)c3)n(-c3ccnc(N[C@H]4CCCN(C(=O)C5CC5)C4)n3)c2C1 (some centres not stated)
Ratio IC50 [3]: 100 | IC50 [4]: 86.5 nM | IC50 [1]: 1.2 nM | IC50 [5]: 15.4 nM | IC50 [8]: 532 nM | IC50 [12]: > 10000 nM

CNC(=O)C1Cc2nc(-c3ccc(Cl)c(Cl)c3)n(-c3ccnc(N[C@@H]4CCN(C(=O)C5CC5)C4)n3)c2C1 (some centres not stated)
IC50 [1]: 9.36 nM

CNC(=O)C1Cc2nc(-c3ccc(Cl)c(Cl)c3)n(-c3ccnc(N[C@@H]4CCCN(C(=O)C5CC5)C4)n3)c2C1 (some centres not stated)
IC50 [1]: 4.83 nM

CNC(=O)C1Cc2nc(-c3ccc(F)c(C(F)(F)F)c3)n(-c3ccnc(N[C@@H]4CCN(C(=O)C5CC5)C4)n3)c2C1 (some centres not stated)
IC50 [1]: 300 nM
